One assay deals with T1, PPARdelta (Homo sapiens, UniProt Q03181).
T1 construct: expressed in transfected cells
T1 sequence (Q03181 1-441): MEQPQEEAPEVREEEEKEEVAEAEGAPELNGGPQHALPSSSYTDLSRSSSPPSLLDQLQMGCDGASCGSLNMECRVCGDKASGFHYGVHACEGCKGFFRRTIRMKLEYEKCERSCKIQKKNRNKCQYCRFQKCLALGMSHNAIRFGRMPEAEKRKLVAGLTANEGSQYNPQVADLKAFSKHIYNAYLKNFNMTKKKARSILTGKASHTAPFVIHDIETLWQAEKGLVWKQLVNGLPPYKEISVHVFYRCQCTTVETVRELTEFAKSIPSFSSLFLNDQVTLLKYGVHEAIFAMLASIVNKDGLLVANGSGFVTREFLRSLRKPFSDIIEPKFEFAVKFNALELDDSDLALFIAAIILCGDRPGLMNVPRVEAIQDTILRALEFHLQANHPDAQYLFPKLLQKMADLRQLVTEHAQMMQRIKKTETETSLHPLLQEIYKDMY
The assay is described as follows: NHR Protein Interaction Biosensor assay (PathHunter NHR cell lines, agonist format). The assay is classed as cell-based. The protocol: (2) Nuclear Hormone Receptor (NHR) Assays
PathHunter NHR cell lines were expanded from freezer stocks according to standard procedures. Cells were seeded in a total volume of 20 μL into white walled, 384-well microplates and incubated at 37° C. for the appropriate time prior to testing. Assay media contained charcoal-dextran filtered serum to reduce the level of hormones present.
For agonist determination, cells were incubated with sample to induce response. Intermediate dilution of sample stocks was performed to generate 5× sample in assay buffer. […] Final assay vehicle concentration was 1%.
Microplates were read following signal generation with a PerkinElmer Envision™ instrument for chemiluminescent signal detection.
Compound activity was analyzed using CBIS data analysis suite (ChemInnovation, CA). For agonist mode assays, percentage activity was calculated using the following formula:
% Activity=100%×(mean RLU of test sample−mean RLU of vehicle control)/(mean MAX control ligand−mean RLU of vehicle control).

A further assay has as its target T2, Human PPARδ (Homo sapiens, UniProt Q03181).
T2 construct: (PPARδ amino acid 128 to C-terminus); expressed in transfected cells; host or cells: CV-1 cells
T2 sequence (Q03181 128-441 limits assumed): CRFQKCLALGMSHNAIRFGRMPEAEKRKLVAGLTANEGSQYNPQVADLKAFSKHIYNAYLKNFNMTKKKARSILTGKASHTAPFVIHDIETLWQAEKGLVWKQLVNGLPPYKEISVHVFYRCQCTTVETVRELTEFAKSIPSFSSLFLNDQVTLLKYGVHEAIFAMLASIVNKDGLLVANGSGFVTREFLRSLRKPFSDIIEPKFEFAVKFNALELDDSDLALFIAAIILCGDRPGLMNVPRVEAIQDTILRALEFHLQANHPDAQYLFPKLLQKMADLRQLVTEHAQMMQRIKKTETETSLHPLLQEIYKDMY
The assay is described as follows: PPARδ activity screen: GAL4-PPARδ LBD luciferase transactivation in CV-1 cells. It is filed as cell-based. As to the method:
CV-1 cells were grown in DMEM+10% charcoal stripped FCS. Cells were seeded into 384-well plates the day before transfection to give a confluency of 50-80% at transfection. A total of […] containing 0.64 micrograms pCMX-PPARDelta LBD, 0.1 micrograms pCMXβGal, 0.08 micrograms pGLMH2004 reporter and 0.02 micrograms pCMX empty vector was transfected per well using FuGene transfection reagent according to the manufacturer's instructions (Roche). Cells were allowed to express protein for 48 h followed by addition of compound.
Human PPARδ was used to PCR amplify the PPARδ LBD. […] Ensuing fusions were verified by sequencing.
Compounds: All compounds were dissolved in DMSO and diluted 1:1000 upon addition to the cells. Compounds were tested in quadruple in concentrations ranging from 0.001 to 100 μM. Cells were treated with compound for 24 h followed by luciferase assay. Each compound was tested in at least two separate experiments.
The activity of a compound is calculated as fold induction compared to an untreated sample. For each compound the efficacy (maximal activity) is given as a relative activity compared to GW501516, a PPARδ agonist. […] EC50 values were calculated via non-linear regression using GraphPad PRISM (GraphPad Software, San Diego, Calif.).

Where [1] appears, read: PathHunter NHR cells, agonist format, read-out: NHR Protein Interaction Biosenor assay, PPARdelta EC50.
[2] abbreviates: CV-1 cells, GAL4-PPARδ LBD luciferase reporter, compound for 24 h, read-out: PPAR delta transactivation EC50.

Where two headings read alike, the source gives them in different places.

`Cc1cnc(-c2ccc(-c3ccco3)cc2)n1Cc1ccccc1OCCCCCC(=O)O` [Compound 8a, 6-(2-((2-(4-(furan-2-yl)phenyl)-5-methyl-1H-imidazol-1-yl)methyl)phenoxy) hexanoic acid]: the EC50 on PPARdelta (setting [1]) is less than 0.51 nM; at Human PPARδ (setting [2]) it was 0.9 nM.
In the case of `Cc1ccc(-c2ccc(-c3ncc(C)n3Cc3ccccc3OCCCCCC(=O)O)cc2)o1` [Compound 8b, 6-(2-((5-methyl-2-(4-(5-methylfuran-2-yl)phenyl)-1H-imidazol-1-yl)methyl)phenoxy)hexanoic acid], the EC50 stood at 0.58 nM on PPARdelta (setting [1]) and 1.2 nM at Human PPARδ (setting [2]).
On the same counts, the results for `Cc1cnc(-c2ccc(-c3ccco3)cc2)n1Cc1ccccc1OCCCCC(C)(C)C(=O)O` [Compound 8d, 6-(2-((2-(4-(furan-2-yl)phenyl)-5-methyl-1H-imidazol-1-yl)methyl)phenoxy)-2,2-dimethylhexanoic acid] are 0.84 nM and 4.5 nM.
On the same counts, the results for `C/C(=C\COc1ccccc1Cn1c(C)cnc1-c1ccc(-c2ccco2)cc1)CCC(=O)O` [Compound 8e, (E)-6-(2-((2-(4-(furan-2-yl)phenyl)-5-methyl-1H-imidazol-1-yl)methyl)phenoxy)-4-methylhex-4-enoic acid] are 0.79 nM and 1 nM.
Regarding `Cc1cnc(-c2ccc(C#CC(F)(F)F)cc2)n1Cc1ccccc1OCCCCCC(=O)O` [Compound 8g, 6-(2-((5-methyl-2-(4-(3,3,3-trifluoroprop-1-yn-1-yl)phenyl)-1H-imidazol-1-yl)methyl)phenoxy)hexanoic acid], the values for the EC50 at PPARdelta (setting [1]) and at Human PPARδ (setting [2]) were 0.65 nM and 8.3 nM, respectively.
As to `Cc1cnc(-c2ccc(OC(F)(F)F)cc2)n1Cc1ccccc1OCCCCCC(=O)O` [Compound 8h, 6-(2-((5-methyl-2-(4-(trifluoromethoxy)phenyl)-1H-imidazol-1-yl)methyl)phenoxy)hexanoic acid], the EC50 on PPARdelta (setting [1]) came out at 1.49 nM; at Human PPARδ (setting [2]), 0.94 nM.
For the compound `Cc1cn(Cc2ccccc2OCCCCCC(=O)O)c(-c2ccc(-c3ccco3)cc2)n1` [Compound 8i, 6-(2-((2-(4-(furan-2-yl)phenyl)-4-methyl-1H-imidazol-1-yl)methyl)phenoxy) hexanoic acid], the EC50 on PPARdelta stood at 13.4 nM; on Human PPARδ (setting [2]), 15.7 nM.
As to `Cc1cn(Cc2ccccc2OCCCCCC(=O)O)c(-c2ccc(-c3ccc(C)o3)cc2)n1` [Compound 8j, 6-(2-((4-methyl-2-(4-(5-methylfuran-2-yl)phenyl)-1H-imidazol-1-yl)methyl)phenoxy)hexanoic acid], the EC50 at PPARdelta (setting [1]) was determined as 5.01 nM; at Human PPARδ (setting [2]) it was 56 nM.
Take `Cc1cn(Cc2ccccc2OCCCCC(C)(C)C(=O)O)c(-c2ccc(-c3ccco3)cc2)n1` [Compound 8k, 6-(2-((2-(4-(furan-2-yl)phenyl)-4-methyl-1H-imidazol-1-yl)methyl)phenoxy)-2,2-dimethylhexanoic acid]: the EC50 at PPARdelta (setting [1]) stood at 16.5 nM; at Human PPARδ (setting [2]), 58 nM.
For `O=C(O)CCCCCOc1ccccc1Cn1ccnc1-c1ccc(-c2ccco2)cc1` [Compound 8l, 6-(2-((2-(4-(furan-2-yl)phenyl)-1H-imidazol-1-yl)methyl)phenoxy)hexanoic acid], the EC50 at PPARdelta (setting [1]) was 1.28 nM; on Human PPARδ (setting [2]) it was 9.5 nM.
In the case of `Cc1nc(-c2ccc(-c3ccco3)cc2)c(Cc2ccccc2OCCCCCC(=O)O)s1` [Compound 8m, 6-(2-((4-(4-(furan-2-yl)phenyl)-2-methylthiazol-5-yl)methyl)phenoxy) hexanoic acid], the EC50 worked out at 1.27 nM at PPARdelta and 18 nM at Human PPARδ.
For the compound `Cn1cc(Cc2ccccc2OCCCCCC(=O)O)c(-c2ccc(-c3ccco3)cc2)n1` [Compound 8n, 6-(2-((3-(4-(furan-2-yl)phenyl)-1-methyl-1H-pyrazol-4-yl)methyl)phenoxy)hexanoic acid], the results for the EC50 at PPARdelta and at Human PPARδ were 19.9 nM and 117 nM, respectively.
For the compound `C/C(=C\COc1ccccc1Cc1c(C)noc1-c1ccc(-c2ccco2)cc1)CCC(=O)O` [Compound 8o, (E)-6-(2-((5-(4-(furan-2-yl)phenyl)-3-methylisoxazol-4-yl)methyl)phenoxy)-4-methylhex-4-enoic acid], the EC50 on PPARdelta was 9.12 nM; at Human PPARδ, 2.9 nM.
As for `C/C(=C\COc1ccccc1Cc1c(C)n[nH]c1-c1ccc(-c2ccco2)cc1)CCC(=O)O` [Compound 8p, (E)-6-(2-((5-(4-(furan-2-yl)phenyl)-3-methyl-1H-pyrazol-4-yl)methyl)phenoxy)-4-methylhex-4-enoic acid], the EC50 was determined as 4.97 nM on PPARdelta and 1.2 nM at Human PPARδ.
`Cc1cnc(-c2ccc(-c3ccco3)cc2)n1Cc1ccccc1CCCCCCC(=O)O` [Compound 8q, 7-(2-((2-(4-(furan-2-yl)phenyl)-5-methyl-1H-imidazol-1-yl)methyl)phenyl)heptanoic acid]: the EC50 on PPARdelta (setting [1]) is 13 nM; at Human PPARδ (setting [2]) it was 3.1 nM.
Turning to `C/C(=C\COc1ccccc1Cn1c(C)cnc1-c1ccc(Cl)nc1)CCC(=O)O` [Compound 8r, (E)-6-(2-((2-(6-chloropyridin-3-yl)-5-methyl-1H-imidazol-1-yl)methyl)phenoxy)-4-methylhex-4-enoic acid], at Human PPARδ (setting [2]), the EC50 amounted to 5.5 nM.
